# Measurements published in patent US20230270738A1, “METHODS OF TREATING AGITATION ASSOCIATED WITH ALZHEIMER'S DISEASE” (Avanir Phrmaceuticals Inc., priority 2020, published 2023).
# “Also recorded” adds a separate entry of the source. Where a name gives a salt, the structure may show the parent alone.
# What was measured:
# [1] = Plasma concentrations of d6-DM, d6-DM metabolites and Q by CYP2D6 metabolizer group; assay type: in vivo, human; conditions: for Changes in plasma concentrations from Week 6 to Week 12: all patients combined, sample 0-3 hours after morning dose; for Plasma concentration by CYP2D6 metabolizer group: poor, intermediate, extensive, ultra-rapid metabolizers; for Plasma concentration/exposure in relation to d6-DM dose of AVP-786: AVP-786-28 vs AVP-786-42.63
# Method: Plasma samples were separated by centrifugation and frozen at −20° C. until assayed at the analytical unit.
# P-glycoprotein = P-glycoprotein (Homo sapiens, UniProt P08183); conditions: cited from earlier work
# P-glycoprotein, sequence (P08183 whole entry): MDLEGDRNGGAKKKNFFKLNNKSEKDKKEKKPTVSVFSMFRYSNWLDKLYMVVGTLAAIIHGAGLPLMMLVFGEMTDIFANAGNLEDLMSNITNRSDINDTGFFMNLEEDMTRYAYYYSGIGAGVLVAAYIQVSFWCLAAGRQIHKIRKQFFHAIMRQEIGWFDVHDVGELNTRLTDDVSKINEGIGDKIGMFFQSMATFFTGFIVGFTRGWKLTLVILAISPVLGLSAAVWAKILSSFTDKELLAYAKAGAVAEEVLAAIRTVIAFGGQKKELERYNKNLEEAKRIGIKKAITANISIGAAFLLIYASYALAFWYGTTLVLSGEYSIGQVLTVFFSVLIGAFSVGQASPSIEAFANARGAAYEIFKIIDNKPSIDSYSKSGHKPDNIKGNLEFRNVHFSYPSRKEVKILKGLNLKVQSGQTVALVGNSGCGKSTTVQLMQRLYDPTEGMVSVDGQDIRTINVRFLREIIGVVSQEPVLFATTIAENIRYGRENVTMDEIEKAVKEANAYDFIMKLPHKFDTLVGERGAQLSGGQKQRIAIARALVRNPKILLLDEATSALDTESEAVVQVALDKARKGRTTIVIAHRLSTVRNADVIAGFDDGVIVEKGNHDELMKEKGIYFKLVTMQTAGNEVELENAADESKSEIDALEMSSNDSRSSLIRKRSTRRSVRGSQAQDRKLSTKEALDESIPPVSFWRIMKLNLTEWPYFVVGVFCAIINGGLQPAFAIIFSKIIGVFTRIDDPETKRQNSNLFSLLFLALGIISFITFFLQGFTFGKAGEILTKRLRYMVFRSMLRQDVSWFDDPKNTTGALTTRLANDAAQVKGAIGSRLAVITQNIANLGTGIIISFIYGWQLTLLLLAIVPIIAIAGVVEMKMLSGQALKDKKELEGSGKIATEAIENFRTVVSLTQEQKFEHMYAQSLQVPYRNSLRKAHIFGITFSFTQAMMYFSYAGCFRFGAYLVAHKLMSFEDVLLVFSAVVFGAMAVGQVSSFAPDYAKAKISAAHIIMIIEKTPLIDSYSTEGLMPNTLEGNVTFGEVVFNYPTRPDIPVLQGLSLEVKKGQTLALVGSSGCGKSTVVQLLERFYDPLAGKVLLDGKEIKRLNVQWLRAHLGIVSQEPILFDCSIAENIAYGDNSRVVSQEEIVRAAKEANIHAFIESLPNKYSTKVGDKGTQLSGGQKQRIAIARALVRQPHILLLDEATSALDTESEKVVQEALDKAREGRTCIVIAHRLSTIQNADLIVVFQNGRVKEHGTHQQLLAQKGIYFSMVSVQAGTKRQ
# sigma-1 receptor = sigma-1 receptor (Homo sapiens, UniProt Q99720); conditions: cited from earlier work
# sigma-1 receptor, sequence (Q99720 whole entry, species assumed): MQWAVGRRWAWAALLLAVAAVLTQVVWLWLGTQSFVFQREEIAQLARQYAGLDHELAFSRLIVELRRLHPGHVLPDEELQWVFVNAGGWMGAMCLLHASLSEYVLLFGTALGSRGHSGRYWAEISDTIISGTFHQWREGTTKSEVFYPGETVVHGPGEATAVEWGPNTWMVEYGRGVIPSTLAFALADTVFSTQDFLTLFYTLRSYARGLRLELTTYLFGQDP
Structure (SMILES),Changes in plasma concentrations from Week 6 to Week 12 [1],P-glycoprotein inhibition (P-glycoprotein),Plasma concentration by CYP2D6 metabolizer group [1],Plasma concentration/exposure in relation to d6-DM dose of AVP-786 [1],Plasma concentration/exposure in relation to d6-DM dose of AVP-786 ([1]; hydrobromide),receptor binding (sigma-1 receptor)
"C=C[C@H]1C[N@@]2CC[C@H]1C[C@@H]2[C@@H](O)c1ccnc2ccc(OC)cc12 [Q, Quinidine, reference compound]",did not appear to be any significant changes,–,–,–,–,–
"C=C[C@H]1C[N@]2CC[C@@H]1C[C@@H]2[C@@H](O)c1ccnc2ccc(OC)cc12 [Quinidine, quinidine sulfate]",–,P-glycoprotein inhibitor,–,–,–,–
"[2H]C([2H])([2H])Oc1ccc2c(c1)C13CCCCC1C(C2)NCC3 (centres unmarked) [d3-3-MM, d3-3-methoxymorphinan]",did not appear to be any significant changes,–,highest in the poor and intermediate metabolizer groups and lowest in the ultra-rapid metabolizer group,–,–,–
"[2H]C([2H])([2H])N1CCC23CCCCC2C1Cc1ccc(O)cc13 (centres unmarked) [d3-DX, d3-dextrorphan]",did not appear to be any significant changes,–,lowest in the poor metabolizer group and highest in the extensive and ultra-rapid metabolizer groups,generally higher; also recorded: increased with the increase in d6-DM dose,–,–
"[2H]C([2H])([2H])Oc1ccc2c(c1)[C@]13CCCC[C@@H]1[C@H](C2)N(C([2H])([2H])[2H])CC3 [d6-DM, deuterated [d6]-dextromethorphan hydrobromide]",did not appear to be any significant changes,–,highest in the poor and intermediate metabolizer groups and lowest in the ultra-rapid metabolizer group,–,generally higher; also recorded: increased with the increase in d6-DM dose,binds to the sigma-1 receptor
